Measured values taken from patent publication US7087648B1, “Methods for modulating macrophage proliferation using polyamine analogs” (The Regents of the University of California, priority 1997, dated 2006).
Like-named read-outs stand apart in the source and are kept apart here.

Tests used:
[1] = system: CD14^+/PCNA^+ peripheral blood macrophage; assay: In vitro CD14/PCNA staining (FACSCAN) of PBMC from AIDS dementia patients cultured five days with agent; type: cell-based, human; details: for CD14^+/PCNA^+ / CD14^+/PCNA^− / total CD14: HIV dementia patient five; for CD14^+/PCNA^+: 0 drug: 74; for CD14^+/PCNA^−: 0 drug: 472; for total CD14: 0 drug: 546; for % Inhibition of CD14^+/PCNA antigen expression, mean: mean of HIV dementia patients
Experimental: We had previously separated peripheral blood monocytes on Ficoll. […] We then used Percoll gradient separation, which allows for denser cells to be captured. A two-step gradient was prepared in 15 mL conical tubes: bottom layer of 1.087 density Percoll, overlaid with 1.077 density. 1.5 mL whole heparinised blood was mixed with an equal volume of isotonic saline. This blood/saline was layered over the gradient and centrifuged. Cells from the 1.077 and 1.087 interfaces were collected, combined, and washed in 5 volumes of RPMI 1640. […] All further experiments were performed using 1.087 gradient.
Five×10^5 PBMC's isolated through a 1.087 g/cc Percoll/saline gradient were exposed to varied concentrations of agent after baseline CD14/PCNA staining was performed. The cells were cultured at 5×10^5 cells in RPM1-1640/10% fetal calf serum in a polypropylene tube (Falcon) at 37° C. for five days. After five days CD14/PCNA staining was performed on control and agent-treated cultures. FACSCAN analysis of PCNA-positive cells in control cultures was compared with agent-treated cultures and the percentage of control PCNA/CD14 cells was calculated. The results of such an experiment in which the effect of polyamine analog DEHOP (SunPharm; Florida) on proliferating macrophages (as detected by PCNA) from the blood of four patients with AIDS dementia are shown in FIG. 1A (with underlying data provided in Table 3). […] A comparison of the inhibitory effect of DEHOP and cyclosphosphamide, another anti-proliferative agent, was performed in vitro using the blood of one of these patients (“CB”).

CD14^+ cells [2] = assay: In vitro dose response in NHL patient PBMC; total CD14^+ cell survival; type: cell-based, human; details: for EC50: Homo sapiens, PBMC, 120 h, read-out: ED50 (50% of cells killed); for EC50 / ED80 (80% of cells killed): 5 days of culture; for drug sensitivity in vitro: post in vivo DEHOP administration blood specimens
Experimental: To test whether patient macrophages would respond to administration of DEHOP in vitro, CD14 cells in a peripheral blood mononuclear cell preparation (PBMC) were exposed to different concentrations of DEHOP and the proportion of CD14 positive cells surviving at the end of 5 days of culture was assessed in drug treated cells as compared to controls. Specimens obtained pre chemotherapy were compared to specimens obtained 2 weeks post therapy. […] For patient four, the first specimen was obtained one day after the first cycle of DEHOP; the second specimen was obtained one week later. The effective dose 50 (where 50% of cells were killed), and effective dose 80 (where 80% of cells were killed) were calculated for each set of patient specimens exposed to DEHOP in vitro.

AIDS related lymphoma = assay: Clinical response to DEHOP in chemotherapy resistant AIDS related lymphoma patients; type: in vivo, human; details: for tumor relapse: after two cycles of DEHOP, no third cycle
Experimental: (§1) Four patients who had failed standard chemotherapy for treatment of their AIDS related lymphoma (therapy included at least CHOP chemotherapy up to six cycles). were evaluated for response to DEHOP administration in vivo. Patients had blood drawn pre administration of drug for evaluation of macrophage activation. This blood was also evaluated for response to DEHOP in vitro. […] Blood was obtained at 1 week after completion of the first and second cycles of therapy. The blood specimens were evaluated for macrophage proliferation (proliferating cell nuclear antigen, PCNA expression), and activation (percentage CD69 expression). Response to therapy was evaluated by direct observation of tumor (3 patients) and persistence or resolution of symptoms (1 patient with GI lymphoma).

CD14^+ cells [3] = assay: In vivo response of blood CD14 cells (PCNA, CD69 expression) to DEHOP in AIDS lymphoma patients; design: species or system human; details: FIG. 7
Experimental: as §1
Because of intercurrent medical problems the patients were not allowed to receive a third cycle of DEHOP and both patients ultimately relapsed, FL on day 47 and LT on day 54. All of the macrophage activation parameters increased in both patients prior to their clinical objective tumor relapse.

**Q.** With `CCNCCCCNCCCCNCCCCNCC` [DEHOP, 1,14-bis(ethylamino)-5,10-diazatetradecane] as the compound, how does the “PCNA^+/CD14 cell survival” value ([1]; FIG. 6, averages of several (N) experiments) read?
**A.** decrease

**Q.** And the “% Inhibition of CD14^+/PCNA antigen expression” value ([1]; HIV dementia patient 1, DEHOP 2 um)?
**A.** 79%

**Q.** And the “% Inhibition of CD14^+/PCNA antigen expression” value ([1]; HIV dementia patient 1, DEHOP 10 um)?
**A.** 95%

**Q.** What about the “% Inhibition of CD14^+/PCNA antigen expression” value ([1]; HIV dementia patient 1, DEHOP 50 um) of the same compound?
**A.** 84%

**Q.** What about the “% Inhibition of CD14^+/PCNA antigen expression” value ([1]; HIV dementia patient 2, DEHOP 0.4 um) of the same compound?
**A.** 94%

**Q.** And the “% Inhibition of CD14^+/PCNA antigen expression” value ([1]; HIV dementia patient 2, DEHOP 2 um)?
**A.** 94%

**Q.** And the “% Inhibition of CD14^+/PCNA antigen expression” value ([1]; HIV dementia patient 2, DEHOP 10 um)?
**A.** 97%

**Q.** What about the “% Inhibition of CD14^+/PCNA antigen expression” value ([1]; HIV dementia patient 3, DEHOP 0.4 um) of the same compound?
**A.** 66%

**Q.** And the “% Inhibition of CD14^+/PCNA antigen expression” value ([1]; HIV dementia patient 3, DEHOP 2 um)?
**A.** 62%

**Q.** And the “% Inhibition of CD14^+/PCNA antigen expression” value ([1]; HIV dementia patient 3, DEHOP 10 um)?
**A.** 58%

**Q.** What about the “% Inhibition of CD14^+/PCNA antigen expression” value ([1]; HIV dementia patient 4, DEHOP 0.08 um) of the same compound?
**A.** 19%

**Q.** And the “% Inhibition of CD14^+/PCNA antigen expression” value ([1]; HIV dementia patient 4, DEHOP 0.4 um)?
**A.** 25%

**Q.** And the “% Inhibition of CD14^+/PCNA antigen expression” value ([1]; HIV dementia patient 4, DEHOP 2 um)?
**A.** 75%

**Q.** And the “CD14^+/PCNA^+” value ([1]; 0.4 (um))?
**A.** 25 #cells/10,000 PBMC

**Q.** What about the “CD14^+/PCNA^−” value ([1]; 0.4 (um)) of the same compound?
**A.** 222 #cells/10,000 PBMC

**Q.** And the “total CD14” value ([1]; 0.4 (um))?
**A.** 247 #cells/10,000 PBMC

**Q.** What about the “CD14^+/PCNA^+” value ([1]; 2 (um)) of the same compound?
**A.** 28 #cells/10,000 PBMC

**Q.** And the “CD14^+/PCNA^−” value ([1]; 2 (um))?
**A.** 182 #cells/10,000 PBMC

**Q.** And the “total CD14” value ([1]; 2 (um))?
**A.** 210 #cells/10,000 PBMC

**Q.** What about the “CD14^+/PCNA^+” value ([1]; 10 um) of the same compound?
**A.** 31 #cells/10,000 PBMC

**Q.** What about the “CD14^+/PCNA^−” value ([1]; 10 um) of the same compound?
**A.** 89 #cells/10,000 PBMC

**Q.** And the “total CD14” value ([1]; 10 um)?
**A.** 120 #cells/10,000 PBMC

**Q.** What about the “percentage of proliferating macrophages (as detected by PCNA)” value ([1]; blood of four patients with AIDS dementia, FIG. 1A) of the same compound?
**A.** significantly reduced the percentage of proliferating macrophages

**Q.** What about the “inhibitory effect compared with cyclosphosphamide” value ([1]; blood of patient five, Table 1) of the same compound?
**A.** superior in inhibition

**Q.** And the “% Inhibition of CD14^+/PCNA antigen expression, mean” value (“% Inhibition … mean” below) ([1]; DEHOP 0.08 um)?
**A.** 19%

**Q.** What about the “% Inhibition … mean” value ([1]; DEHOP 0.4 um) of the same compound?
**A.** 62%

**Q.** And the “% Inhibition … mean” value ([1]; DEHOP 2 um)?
**A.** 78%

**Q.** And the “% Inhibition … mean” value ([1]; DEHOP 10 um)?
**A.** 83%

**Q.** What about the “% Inhibition … mean” value ([1]; DEHOP 50 um) of the same compound?
**A.** 84%

**Q.** And the “inhibition and/or killing of blood PCNA^+/CD14^+ cells” value ([1]; summary of the data shown)?
**A.** potent inhibition and/or killing

**Q.** What about the EC50 (CD14^+ cells [2]; patient one, Pre specimen) of the same compound?
**A.** 10 µM

**Q.** What about the EC50 (CD14^+ cells [2]; patient three, Post specimen) of the same compound?
**A.** 0.1 µM

**Q.** And the EC50 (CD14^+ cells [2]; patient three, Pre specimen)?
**A.** 10 µM

**Q.** And the EC50 (CD14^+ cells [2]; patient two, Post specimen)?
**A.** > 10 µM

**Q.** What about the EC50 (CD14^+ cells [2]; patient two, Pre specimen) of the same compound?
**A.** 1 µM

**Q.** And the “ED80 (80% of cells killed)” value (CD14^+ cells [2]; patient four, Post specimen)?
**A.** 0.1 µM

**Q.** What about the “ED80 (80% of cells killed)” value (CD14^+ cells [2]; patient four, Pre specimen) of the same compound?
**A.** 1.0 µM

**Q.** What about the “ED80 (80% of cells killed)” value (CD14^+ cells [2]; patient one, Pre specimen) of the same compound?
**A.** >10 µM

**Q.** And the “ED80 (80% of cells killed)” value (CD14^+ cells [2]; patient three, Post specimen)?
**A.** 0.8 µM

**Q.** And the “ED80 (80% of cells killed)” value (CD14^+ cells [2]; patient three, Pre specimen)?
**A.** >10 µM

**Q.** What about the “ED80 (80% of cells killed)” value (CD14^+ cells [2]; patient two, Post specimen) of the same compound?
**A.** >10 µM

**Q.** And the “ED80 (80% of cells killed)” value (CD14^+ cells [2]; patient two, Pre specimen)?
**A.** >10 µM

**Q.** And the “drug sensitivity in vitro” value (CD14^+ cells [2]; patient two)?
**A.** persistently resistant to drug

**Q.** And the “drug sensitivity in vitro” value (CD14^+ cells [2]; patients)?
**A.** marked drug sensitivity

**Q.** And the “Response to Therapy: objective measured tumor response after first week of Rx” value (AIDS related lymphoma; patient four, DEHOP sq for 5 days, 25 or 50 mg/m^2)?
**A.** >50% objective measured tumor

**Q.** And the tumor relapse (AIDS related lymphoma; patient four)?
**A.** 47 days

**Q.** What about the “Response to Therapy” value (AIDS related lymphoma; patient one, DEHOP sq for 5 days, 25 or 50 mg/m^2) of the same compound?
**A.** None

**Q.** And the “Response to Therapy” value (AIDS related lymphoma; patient three, DEHOP sq for 5 days, 25 or 50 mg/m^2)?
**A.** Clinical Response

**Q.** And the tumor relapse (AIDS related lymphoma; patient three)?
**A.** 54 days

**Q.** And the “Response to Therapy” value (AIDS related lymphoma; patient two, DEHOP sq for 5 days, 25 or 50 mg/m^2)?
**A.** None

**Q.** And the clinical response (AIDS related lymphoma; patients, day 35 after initiation of study)?
**A.** objective and subjective responses

**Q.** What about the “PCNA/CD69 expression of CD14 cells” value (CD14^+ cells [3]; after administration of drug) of the same compound?
**A.** generally decreased

**Q.** And the “expression of all macrophage activation parameters” value (CD14^+ cells [3]; day 35 after initiation of study)?
**A.** low to background level
